The source of these data is patent publication US10695337B2, “Piperidin-4-yl azetidine derivatives as JAK1 inhibitors” (Incyte Corporation, priority 2010, dated 2020).

The target in the test is human JAK1 (a.a. 837-1142). In words: In vitro JAK kinase assay (HTRF, phosphorylation of a biotinylated peptide), JAK1. The note with it: measured at 1 mM ATP; JAK2 IC50 / JAK1 IC50. Type of test: biochemical. The procedure:
Compounds herein were tested for inhibitory activity of JAK targets according to the following in vitro assay described in Park et al., Analytical Biochemistry 1999, 269, 94-104. The catalytic domains of human JAK1 (a.a. 837-1142), Jak2 (a.a. 828-1132) and Jak3 (a.a. 781-1124) with an N-terminal His tag were expressed using baculovirus in insect cells and purified. The catalytic activity of JAK1, JAK2 or JAK3 was assayed by measuring the phosphorylation of a biotinylated peptide. The phosphorylated peptide was detected by homogenous time resolved fluorescence (HTRF). […] Reactions were carried out at room temperature for 1 hr and then stopped with 20 μL 45 mM EDTA, 300 nM SA-APC, 6 nM Eu-Py20 in assay buffer (Perkin Elmer, Boston, Mass.). Binding to the Europium labeled antibody took place for 40 minutes and HTRF signal was measured on a Fusion plate reader (Perkin Elmer, Boston, Mass.).
Background: TR-FRET usually uses a lanthanide donor and a delayed reading to cut background.
In the case of `N#CCC1(n2cc(-c3ncnc4[nH]ccc34)cn2)CN(C2CCN(C(=O)c3ccc(F)c(Cl)c3)CC2)C1` [Example 34, {1-[1-(3-chloro-4-fluorobenzoyl)piperidin-4-yl]-3-[4-(7H-pyrrolo[2,3-d]pyrimidin-4-yl)-1H-pyrazol-1-yl]azetidin-3-yl}acetonitrile], the “IC50 Ratio JAK2/JAK1” value came to 6.0.

`N#CCC1(n2cc(-c3ncnc4[nH]ccc34)cn2)CN(C2CCN(C(=O)c3ccc(F)c(F)c3)CC2)C1` [Example 35, {1-[1-(3,4-difluorobenzoyl)piperidin-4-yl]-3-[4-(7H-pyrrolo[2,3-d]pyrimidin-4-yl)-1H-pyrazol-1-yl]azetidin-3-yl}acetonitrile]: the “IC50 Ratio JAK2/JAK1” value turned out to be 6.9.

Consider `COc1cc(F)cc(C(=O)N2CCC(N3CC(CC#N)(n4cc(-c5ncnc6[nH]ccc56)cn4)C3)CC2)c1` [Example 36, {1-[1-(3-fluoro-5-methoxybenzoyl)piperidin-4-yl]-3-[4-(7H-pyrrolo[2,3-d]pyrimidin-4-yl)-1H-pyrazol-1-yl]azetidin-3-yl}acetonitrile], for which the “IC50 Ratio JAK2/JAK1” value worked out at 2.3.

Take `COc1cc(C(=O)N2CCC(N3CC(CC#N)(n4cc(-c5ncnc6[nH]ccc56)cn4)C3)CC2)cc(Cl)n1` [Example 37, {1-[1-(2-chloro-6-methoxyisonicotinoyl)piperidin-4-yl]-3-[4-(7H-pyrrolo[2,3-d]pyrimidin-4-yl)-1H-pyrazol-1-yl]azetidin-3-yl}acetonitrile]: the “IC50 Ratio JAK2/JAK1” value was determined as 2.1.

Take `COc1ccc(F)cc1C(=O)N1CCC(N2CC(CC#N)(n3cc(-c4ncnc5[nH]ccc45)cn3)C2)CC1` [Example 38, {1-[1-(5-fluoro-2-methoxybenzoyl)piperidin-4-yl]-3-[4-(7H-pyrrolo[2,3-d]pyrimidin-4-yl)-1H-pyrazol-1-yl]azetidin-3-yl}acetonitrile]: the “IC50 Ratio JAK2/JAK1” value was 5.7.

For `COc1cccc(F)c1C(=O)N1CCC(N2CC(CC#N)(n3cc(-c4ncnc5[nH]ccc45)cn3)C2)CC1` [Example 39, {1-[1-(2-fluoro-6-methoxybenzoyl)piperidin-4-yl]-3-[4-(7H-pyrrolo[2,3-d]pyrimidin-4-yl)-1H-pyrazol-1-yl]azetidin-3-yl}acetonitrile], the “IC50 Ratio JAK2/JAK1” value amounted to 3.2.

On to `COc1cc(F)ccc1C(=O)N1CCC(N2CC(CC#N)(n3cc(-c4ncnc5[nH]ccc45)cn3)C2)CC1` [Example 40, {1-[1-(4-fluoro-2-methoxybenzoyl)piperidin-4-yl]-3-[4-(7H-pyrrolo[2,3-d]pyrimidin-4-yl)-1H-pyrazol-1-yl]azetidin-3-yl}acetonitrile], for which the “IC50 Ratio JAK2/JAK1” value was 4.8.

For `N#CCC1(n2cc(-c3ncnc4[nH]ccc34)cn2)CN(C2CCN(C(=O)c3cccc(F)c3F)CC2)C1` [Example 41, {1-[1-(2,3-difluorobenzoyl)piperidin-4-yl]-3-[4-(7H-pyrrolo[2,3-d]pyrimidin-4-yl)-1H-pyrazol-1-yl]azetidin-3-yl}acetonitrile], the “IC50 Ratio JAK2/JAK1” value is 4.9.

Turning to `N#CCC1(n2cc(-c3ncnc4[nH]ccc34)cn2)CN(C2CCN(C(=O)c3ccc(F)cc3F)CC2)C1` [Example 42, {1-[1-(2,4-difluorobenzoyl)piperidin-4-yl]-3-[4-(7H-pyrrolo[2,3-d]pyrimidin-4-yl)-1H-pyrazol-1-yl]azetidin-3-yl}acetonitrile], the “IC50 Ratio JAK2/JAK1” value came out at 6.7.

In the case of `N#CCC1(n2cc(-c3ncnc4[nH]ccc34)cn2)CN(C2CCN(C(=O)c3cc(F)ccc3F)CC2)C1` [Example 43, {1-[1-(2,5-difluorobenzoyl)piperidin-4-yl]-3-[4-(7H-pyrrolo[2,3-d]pyrimidin-4-yl)-1H-pyrazol-1-yl]azetidin-3-yl}acetonitrile], the “IC50 Ratio JAK2/JAK1” value stood at 5.0.

As to `N#CCC1(n2cc(-c3ncnc4[nH]ccc34)cn2)CN(C2CCN(C(=O)c3c(F)cccc3F)CC2)C1` [Example 44, {1-[1-(2,6-difluorobenzoyl)piperidin-4-yl]-3-[4-(7H-pyrrolo[2,3-d]pyrimidin-4-yl)-1H-pyrazol-1-yl]azetidin-3-yl}acetonitrile], the “IC50 Ratio JAK2/JAK1” value is 2.9.

Take `N#CCC1(n2cc(-c3ncnc4[nH]ccc34)cn2)CN(C2CCN(C(=O)c3c(F)cccc3C(F)(F)F)CC2)C1` [Example 45, {1-{1-[2-fluoro-6-(trifluoromethyl)benzoyl]piperidin-4-yl}-3-[4-(7H-pyrrolo[2,3-d]pyrimidin-4-yl)-1H-pyrazol-1-yl]azetidin-3-yl}acetonitrile]: the “IC50 Ratio JAK2/JAK1” value turned out to be 3.1.

In the case of `N#CCC1(n2cc(-c3ncnc4[nH]ccc34)cn2)CN(C2CCN(C(=O)c3ccc(F)c(F)c3F)CC2)C1` [Example 46, {3-[4-(7H-pyrrolo[2,3-d]pyrimidin-4-yl)-1H-pyrazol-1-yl]-1-[1-(2,3,4-trifluorobenzoyl)piperidin-4-yl]azetidin-3-yl}acetonitrile], the “IC50 Ratio JAK2/JAK1” value is reported as 6.3.

With `N#CCC1(n2cc(-c3ncnc4[nH]ccc34)cn2)CN(C2CCN(C(=O)c3c(F)ccc(F)c3F)CC2)C1` [Example 47, {3-[4-(7H-pyrrolo[2,3-d]pyrimidin-4-yl)-1H-pyrazol-1-yl]-1-[1-(2,3,6-trifluorobenzoyl)piperidin-4-yl]azetidin-3-yl}acetonitrile], the “IC50 Ratio JAK2/JAK1” value is 3.7.

With `N#CCC1(n2cc(-c3ncnc4[nH]ccc34)cn2)CN(C2CCN(C(=O)c3cc(F)c(F)cc3F)CC2)C1` [Example 48, {3-[4-(7H-pyrrolo[2,3-d]pyrimidin-4-yl)-1H-pyrazol-1-yl]-1-[1-(2,4,5-trifluorobenzoyl)piperidin-4-yl]azetidin-3-yl}acetonitrile], the “IC50 Ratio JAK2/JAK1” value amounted to 6.5.

`N#CCC1(n2cc(-c3ncnc4[nH]ccc34)cn2)CN(C2CCN(C(=O)c3c(F)cc(F)cc3F)CC2)C1` [Example 49, {3-[4-(7H-pyrrolo[2,3-d]pyrimidin-4-yl)-1H-pyrazol-1-yl]-1-[1-(2,4,6-trifluorobenzoyl)piperidin-4-yl]azetidin-3-yl}acetonitrile]: the “IC50 Ratio JAK2/JAK1” value is reported as 6.5.

As to `COc1c(Br)cc(C(=O)N2CCC(N3CC(CC#N)(n4cc(-c5ncnc6[nH]ccc56)cn4)C3)CC2)cc1Br` [Example 50, {1-[1-(3,5-dibromo-4-methoxybenzoyl)piperidin-4-yl]-3-[4-(7H-pyrrolo[2,3-d]pyrimidin-4-yl)-1H-pyrazol-1-yl]azetidin-3-yl}acetonitrile], the “IC50 Ratio JAK2/JAK1” value is on record as 6.9.

Consider `CN(C)c1ccc(C(=O)N2CCC(N3CC(CC#N)(n4cc(-c5ncnc6[nH]ccc56)cn4)C3)CC2)c(F)c1C#N` [Example 51, 3-[(4-{3-(cyanomethyl)-3-[4-(7H-pyrrolo[2,3-d]pyrimidin-4-yl)-1H-pyrazol-1-yl]azetidin-1-yl}piperidin-1yl)carbonyl]-6-(dimethylamino)-2-fluorobenzonitrile], for which the “IC50 Ratio JAK2/JAK1” value was found to be 6.3.

Regarding `N#CCC1(n2cc(-c3ncnc4[nH]ccc34)cn2)CN(C2CCN(C(=O)c3ccc(C(F)(F)F)c(F)c3)CC2)C1` [Example 52, {1-{1-[3-fluoro-4-(trifluoromethyl)benzoyl]piperidin-4-yl}-3-[4-(7H-pyrrolo[2,3-d]pyrimidin-4-yl)-1H-pyrazol-1-yl]azetidin-3-yl}acetonitrile], the “IC50 Ratio JAK2/JAK1” value was 4.4.

Turning to `N#CCC1(n2cc(-c3ncnc4[nH]ccc34)cn2)CN(C2CCN(C(=O)c3cc(Cl)cc(C(F)(F)F)n3)CC2)C1` [Example 53, {1-(1-{[4-chloro-6-(trifluoromethyl)pyridin-2-yl]carbonyl}piperidin-4-yl)-3-[4-(7H-pyrrolo[2,3-d]pyrimidin-4-yl)-1H-pyrazol-1-yl]azetidin-3-yl}acetonitrile], the “IC50 Ratio JAK2/JAK1” value is reported as 9.4.

Take `N#CCC1(n2cc(-c3ncnc4[nH]ccc34)cn2)CN(C2CCN(C(=O)c3cc(F)c(F)c(F)c3F)CC2)C1` [Example 54, {3-[4-(7H-pyrrolo[2,3-d]pyrimidin-4-yl)-1H-pyrazol-1-yl]-1-[1-(2,3,4,5-tetrafluorobenzoyl)piperidin-4-yl]azetidin-3-yl}acetonitrile]: the “IC50 Ratio JAK2/JAK1” value worked out at 9.1.

For the molecule `COc1ccc(C(=O)N2CCC(N3CC(CC#N)(n4cc(-c5ncnc6[nH]ccc56)cn4)C3)CC2)cc1C#N` [Example 55, 5-[(4-{3-(cyanomethyl)-3-[4-(7H-pyrrolo[2,3-d]pyrimidin-4-yl)-1H-pyrazol-1-yl]azetidin-1-yl}piperidin-1-yl)carbonyl]-2-methoxybenzonitrile], the “IC50 Ratio JAK2/JAK1” value came to 7.5.

As for `N#CCC1(n2cc(-c3ncnc4[nH]ccc34)cn2)CN(C2CCN(C(=O)c3c(F)c(F)cc(F)c3F)CC2)C1` [Example 56, {3-[4-(7H-pyrrolo[2,3-d]pyrimidin-4-yl)-1H-pyrazol-1-yl]-1-[1-(2,3,5,6-tetrafluorobenzoyl)piperidin-4-yl]azetidin-3-yl}acetonitrile], the “IC50 Ratio JAK2/JAK1” value was 8.8.

In the case of `N#CCC1(n2cc(-c3ncnc4[nH]ccc34)cn2)CN(C2CCN(C(=O)c3ccnc(C(F)(F)F)c3)CC2)C1` [Example 57, (3-[4-(7H-pyrrolo[2,3-d]pyrimidin-4-yl)-1H-pyrazol-1-yl]-1-{1-[2-(trifluoromethyl)isonicotinoyl]piperidin-4-yl}azetidin-3-yl)acetonitrile], the “IC50 Ratio JAK2/JAK1” value turned out to be 3.3.

Consider `N#CCC1(n2cc(-c3ncnc4[nH]ccc34)cn2)CN(C2CCN(C(=O)c3ccc(F)c(O)c3)CC2)C1` [Example 58, {1-[1-(4-fluoro-3-hydroxybenzoyl)piperidin-4-yl]-3-[4-(7H-pyrrolo[2,3-d]pyrimidin-4-yl)-1H-pyrazol-1-yl]azetidin-3-yl} acetonitrile], for which the “IC50 Ratio JAK2/JAK1” value turned out to be 5.0.
